Structures are written as SMILES.

Experiment [1] concerns α2, α3 or α5 GABAA receptors. As to the kind of experiment: oxazolone contact dermatitis model of chronic itch in GABAAR triple point-mutated mice. The format is in vivo, mice (129X1/SvJ genetic background). Conditions: 10 mg/kg i.p. on day 18; recorded 4 hours after injection.
In the next experiment the target is T1, α3 GABAA receptors (Mus musculus, UniProt P22723+P26049).
T1 construct: endogenous in cells; host or cells: living RRHR triple point-mutated mice (129X1/SvJ)
The experiment in a line: α-Me-5HT-induced itch (cheek injection) in RRHR triple point-mutated mice (α3 only). The format is in vivo, mice (129X1/SvJ genetic background). The method, then: (§1) Because mice of this particular genetic background (129SvJ) have not yet been systematically analyzed in itch experiments, the inventors first assessed the sensitivity of these mice to a battery of pruritogens injected into the right cheek.
(§2) Acute itch was assessed in mice that received intradermal microinjections of pruritogens or 0.9% saline into the right cheek, which had been shaved at least one day before the experiment. In two sets of experiments that addressed the contribution of GABAARs in primary and secondary pruritoceptors, pruritogens were injected in the right thigh (FIG. 17). Before injection, mice were acclimatized to a 15 cm diameter cylindrical enclosure for more than 30 min with cage bedding on the ground. Background white noise generated by a radio in the room at ambient volume was applied to prevent auditory distraction. […] Videos were analyzed off-line. Scratching of the hind paw directed to the ipsilateral cheek was counted in bouts, with one scratching bout defined as an instance when the mouse lifted its paw to scratch until it returned the paw to the cage floor. In case of experiments in which the pruritogen was injected in the skin of the thigh, the time spent biting the injected skin area was counted in s/min as a measure of itch.

The next experiment concerns the target T2, α2 GABAA receptors (Mus musculus, UniProt P22723+P26048).
T2 construct: endogenous in cells; host or cells: living RHRR triple point-mutated mice (129X1/SvJ)
As to the kind of experiment: α-Me-5HT-induced itch (cheek injection) in RHRR triple point-mutated mice (α2 only). The format is in vivo, mice (129X1/SvJ genetic background). The method, then: as §1, §2

The target in the next experiment is T3, α5 GABAA receptors (Mus musculus, UniProt P22723+Q8BHJ7).
T3 construct: endogenous in cells; host or cells: living triple point-mutated mice with only α5 diazepam-sensitive
The experiment in a line: α-Me-5HT-induced itch (cheek injection) in RRRH triple point-mutated mice (α5 only). Conditions: DZP 10 mg/kg per oral 1 h before 20 μg α-Me-5HT, 20 min. The experiment is classed as in vivo, mice (129X1/SvJ genetic background). As for the experimental part: as §1, §2

Experiment [2] concerns contact dermatitis-induced chronic itch. The experiment in a line: oxazolone contact dermatitis model of chronic itch in wild-type mice. The experiment is classed as in vivo, wild-type C57BL6/J mice. The conditions noted are these: 10 mg/kg i.p. on day 18; 15 to 210 min after injection. As for the experimental part: Thus, TPA023B is, in accordance with the other findings of the inventors, suitable as an antipruritic substance.
This was independent of the treatment they received from day 7 to day 27.
The inventors sought to confirm the antipruritic efficacy of α2 and α3 GABAA receptor agonists against contact dermatitis-induced chronic itch. To this end, N-desmethyl clobazam, a benzodiazepine with improved activity at α2 versus α1 was assessed for its antipruritic effects (Jensen et al. PLoS One. 2014 Feb. 12; 9(2):e88456.).
Chronic itch was investigated in the contact dermatitis model (Kido-Nakahara, M., et al. J Clin Invest, 2014, 124, 2683-2695). Mice were treated once with 10% oxazolone in acetone/olive oil (4:1 v/v) on the shaved nape of the neck (100 μl) on day 0. After a resting period of 7 days, mice were treated with 1% oxazolone in acetone/olive oil (4:1 v/v) on the nape of the neck (100 μl) every other day for 10 days. On the day of the experiment, mice were injected with drug or vehicle i.p. under short and light isoflurane anesthesia. […]

Another experiment deals with α-Me-5HT-induced itch. The experiment in a line: α-methyl 5-HT-induced itch (cheek injection) in wild-type mice. The experiment is classed as in vivo, wild-type mice (129X1/SvJ).
A further experiment addresses T4, α3 GABAA receptor (Mus musculus, UniProt P22723+P26049, H154R).
T4 construct: endogenous in cells; host or cells: living HHRH single point-mutated mice (knock-in)
As to the kind of experiment: α-Me-5HT-induced itch in HHRH mice (α3-GABAAR DZP-insensitive). The conditions noted are these: 10 mg/kg per oral 1 h before 20 μg α-Me-5HT; 20 min. The format is in vivo. The method, then: Wild-type and GABAAR single point mutated mice in which only α3 is rendered DZP-insensitive (HHRH mice) received per oral injection of 10 mg/kg TP003 or vehicle. One hour after injection, the mice received a 20 μg α-Me-5HT cheek injection to elicit itching. Over the course of twenty minutes scratching bouts directed at the ipsilateral cheek were recorded and TP003 injected mice compared with vehicle injected control mice (FIGS. 8A & 8B).
as §2, with “ground.” for “ground. Background white noise generated by a radio in the room at ambient volume was applied to prevent auditory distraction.”

Experiment [3] deals with brain membranes prepared from α1,2,3,5 H→R point mutated mice. The format is binding, mice (RRRR). The conditions noted are these: 4 nM [3H]Ro 15-4513; increasing concentrations; n=4. As for the experimental part:
The supernatant was centrifuged for 20 min at 30,000 g and the resulting crude membrane pellet was washed once with buffer. […] Non-specific [^3H]Ro 15-4513 binding was assessed by addition of 10 μM flumazenil to the reaction. Incubation was stopped by rapid vacuum filtration using a semiautomatic cell harvester (Skatron Instruments) and washed filters were subjected to liquid scintillation counting.

The test system of another experiment is chloroquine-induced itch. The experiment in a line: chloroquine-induced itch (cheek injection) in wild-type mice. The format is in vivo, wild-type C57BL6/J mice. Conditions: 30 mg/kg intraperitoneal; 100 μg chloroquine; 30 min. The method, then:
as §2, with “distraction. A 30 gauge needle was inserted bevel-up and pushed 5 mm horizontally into the skin beyond the point of insertion, before injection of the pruritogen (in a total volume of 10 μl). No anesthesia was used. Correct injection was confirmed by the appearance of a slightly domed bulla upon injection.” for “distraction.”

T2 sequence (P26048 29-451): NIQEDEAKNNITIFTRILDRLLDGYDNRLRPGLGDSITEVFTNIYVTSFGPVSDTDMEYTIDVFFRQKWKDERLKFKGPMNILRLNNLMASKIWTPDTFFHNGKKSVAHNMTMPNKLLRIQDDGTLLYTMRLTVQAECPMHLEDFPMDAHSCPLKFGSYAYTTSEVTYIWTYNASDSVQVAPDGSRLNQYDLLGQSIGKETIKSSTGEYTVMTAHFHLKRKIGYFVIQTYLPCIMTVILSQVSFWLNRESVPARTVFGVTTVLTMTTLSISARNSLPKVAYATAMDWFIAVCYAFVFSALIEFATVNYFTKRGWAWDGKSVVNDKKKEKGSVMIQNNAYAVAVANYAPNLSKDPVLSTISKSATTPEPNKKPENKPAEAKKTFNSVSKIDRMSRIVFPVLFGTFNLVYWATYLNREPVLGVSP
T2 sequence (P63080 26-473 partner): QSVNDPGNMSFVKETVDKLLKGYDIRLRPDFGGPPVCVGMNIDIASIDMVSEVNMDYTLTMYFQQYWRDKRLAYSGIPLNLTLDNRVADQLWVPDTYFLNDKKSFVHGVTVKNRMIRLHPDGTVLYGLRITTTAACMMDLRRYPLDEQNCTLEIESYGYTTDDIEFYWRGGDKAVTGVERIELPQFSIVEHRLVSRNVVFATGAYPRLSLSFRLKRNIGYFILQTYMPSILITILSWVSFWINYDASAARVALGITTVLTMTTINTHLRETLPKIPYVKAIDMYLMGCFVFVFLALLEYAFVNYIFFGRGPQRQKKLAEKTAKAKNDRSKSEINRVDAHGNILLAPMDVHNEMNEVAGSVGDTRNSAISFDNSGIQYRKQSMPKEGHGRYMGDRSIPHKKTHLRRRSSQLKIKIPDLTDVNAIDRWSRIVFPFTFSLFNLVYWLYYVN
T2 sequence (P22723 39-474): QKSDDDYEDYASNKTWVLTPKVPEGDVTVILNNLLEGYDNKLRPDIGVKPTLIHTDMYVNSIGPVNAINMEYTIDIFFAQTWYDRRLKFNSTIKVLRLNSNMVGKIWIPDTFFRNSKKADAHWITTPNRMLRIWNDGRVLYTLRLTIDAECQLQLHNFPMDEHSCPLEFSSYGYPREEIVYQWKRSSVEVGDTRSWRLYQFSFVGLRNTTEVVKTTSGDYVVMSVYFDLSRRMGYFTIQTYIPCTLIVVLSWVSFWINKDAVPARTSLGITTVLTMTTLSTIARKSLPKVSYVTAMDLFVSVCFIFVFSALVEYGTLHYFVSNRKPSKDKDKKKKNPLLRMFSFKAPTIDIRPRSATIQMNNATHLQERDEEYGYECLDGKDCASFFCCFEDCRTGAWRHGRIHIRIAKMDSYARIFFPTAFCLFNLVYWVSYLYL
T1 sequence (P26049 29-492): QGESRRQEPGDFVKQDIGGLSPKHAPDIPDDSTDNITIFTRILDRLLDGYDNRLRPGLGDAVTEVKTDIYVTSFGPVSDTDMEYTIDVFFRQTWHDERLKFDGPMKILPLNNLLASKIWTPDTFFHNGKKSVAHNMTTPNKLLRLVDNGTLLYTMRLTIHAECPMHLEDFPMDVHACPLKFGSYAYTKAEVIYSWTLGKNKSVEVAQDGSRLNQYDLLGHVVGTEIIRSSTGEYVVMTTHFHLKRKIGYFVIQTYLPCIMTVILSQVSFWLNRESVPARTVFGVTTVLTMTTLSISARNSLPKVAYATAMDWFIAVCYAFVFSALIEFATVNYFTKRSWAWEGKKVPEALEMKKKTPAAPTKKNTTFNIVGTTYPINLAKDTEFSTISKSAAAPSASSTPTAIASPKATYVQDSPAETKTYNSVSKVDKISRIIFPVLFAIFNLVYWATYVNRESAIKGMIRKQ
T1 sequence (P63080 26-473 partner): as the sequence (P63080 26-473 partner) above
T1 sequence (P22723 39-474): as the sequence (P22723 39-474) above
T3 sequence (Q8BHJ7 32-463 limits assumed): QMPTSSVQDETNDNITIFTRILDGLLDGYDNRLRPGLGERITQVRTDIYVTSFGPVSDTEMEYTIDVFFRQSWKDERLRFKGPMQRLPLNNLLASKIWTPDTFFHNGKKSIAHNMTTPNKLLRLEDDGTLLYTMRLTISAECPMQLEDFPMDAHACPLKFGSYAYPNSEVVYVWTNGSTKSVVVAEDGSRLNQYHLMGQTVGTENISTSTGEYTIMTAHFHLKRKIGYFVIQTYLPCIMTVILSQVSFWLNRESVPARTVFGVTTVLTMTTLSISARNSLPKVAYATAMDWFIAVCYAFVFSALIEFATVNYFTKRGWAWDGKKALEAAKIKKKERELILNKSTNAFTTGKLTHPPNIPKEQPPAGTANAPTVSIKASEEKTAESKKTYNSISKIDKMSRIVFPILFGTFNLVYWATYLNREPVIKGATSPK
T3 sequence (P63080 26-473 partner): as the sequence (P63080 26-473 partner) above
T3 sequence (P22723 39-474): as the sequence (P22723 39-474) above
T4 sequence (P26049 29-492 H154R): as the sequence (P26049 29-492) above, with H126R counted along it
T4 sequence (P63080 26-473 partner): as the sequence (P63080 26-473 partner) above
T4 sequence (P22723 39-474): as the sequence (P22723 39-474) above

Consider `CN1C(=O)CN=C(c2ccccc2)c2cc(Cl)ccc21` [DZP, Diazepam], for which, in [1], the “number of scratching bouts directed at the nape of the neck vs vehicle” value was “significant reduction in the number of scratching bouts”. At α3 GABAA receptors (RRHR mice (FIG. 2C), oral DZP 1 h before 20 μg α-Me-5HT), the “dose-dependence of antipruritic effects” value is recorded as “dose-dependent antipruritic effects”. Further, the “scratching bouts directed at the ipsilateral cheek vs vehicle” value at α3 GABAA receptors (RRHR mice (α3 only), DZP 10 mg/kg per oral 1 h before 20 μg α-Me-5HT, 20 min) is reported as “significant reduction of scratching bouts”; on α2 GABAA receptors (RHRR mice (α2 only), DZP 10 mg/kg per oral 1 h before 20 μg α-Me-5HT, 20 min), “significant reduction of scratching bouts”; on α5 GABAA receptors, “no significant reduction in scratching bouts”. Moreover, the “dose-response of scratching bouts” value at α2 GABAA receptors (RHRR mice, 0.1, 0.3, 1, 3, 10 and 30 mg/kg per oral 1 h before 20 μg α-Me-5HT, 30 min) was “dose-dependent reduction of scratching bouts”.

With `O=C1CC(=O)N(c2ccccc2)c2cc(Cl)ccc2N1` [NDMC, N-desmethyl clobazam], the “scratching bouts directed at the nape of the neck vs vehicle” value in experiment [2] is recorded as “significant reduction in scratching bouts”.

For the molecule `CC(C)(O)c1ccn2c(-c3ccc(F)c(-c4ccc(F)cc4C#N)c3)cnc2c1F` [TP003, 4,2′-difluoro-5′-[8-fluoro-7-(1-hydroxy-1-methylethyl)imidazo[1,2-a]pyridin-3-yl]biphenyl-2-carbonitrile], the “scratching bouts directed at the ipsilateral cheek vs vehicle” value in the experiment on α-Me-5HT-induced itch (wild-type 129X1/SvJ mice, 10 mg/kg per oral 1 h before 20 μg α-Me-5HT, 20 min) was “significant reduction of scratching bouts”. Moreover, the “antipruritic effect in HHRH mice” value on α3 GABAA receptor is recorded as “absent”.

On to `CC(C)(C)OC(=O)c1ncn2c1[C@@H]1CCCN1C(=O)c1c(Br)cccc1-2` [bretazenil], for which, in experiment [3], the “displacement of [3H]Ro 15-4513 binding” value is “dose-dependently inhibited”.

For `CC(=O)[C@H]1CC[C@H]2[C@@H]3CC[C@H]4C[C@](C)(O)CC[C@]4(C)[C@H]3CC[C@]12C` [ganaxolone], the “number of scratching bouts vs vehicle” value in the experiment on chloroquine-induced itch is given as “significant reduction in number scratching bouts”.

Consider `CC(N)Cc1c[nH]c2ccc(O)cc12` (stereo not drawn) [α-methyl 5-HT, α-methyl-5-hydroxy-tryptamine], for which the “scratching behavior directed to the injected site” value in the experiment on α-Me-5HT-induced itch (different doses injected into the right cheek, wild-type 129X1/SvJ, 30 min) is on record as “dose-dependent robust scratching behavior”.

Values taken from patent US11529359B2, “Use of GABAA receptor modulators for treatment of itch” (UNIVERSITÄT ZÜRICH, priority 2016, dated 2022).
